Consider one compound from the NIST ThermoML archive (doi:10.1021/acs.jced.5b00135).

Numbers after ± are expanded uncertainties.

The conditions of data set [1]: Crystal; DTA.
A short description of data set [2]: Molar enthalpy of transition or fusion. The note with it: Crystal; DSC.

In the case of `C=CC(=O)NC(C)(C)C` [N-tert-butylacrylamide], in data set [1], the Normal melting temperature is 128.50 ± 0.7 °C. Moreover, in data set [2], the “Molar enthalpy of transition or fusion” value turned out to be 21.6 ± 1.1 kJ/mol.
